Consider two compounds from patent US9193665B2, “Synthesis of galanal compounds and analogues thereof” (Academia Sinica, priority 2013, dated 2015).

The subject of one test is DIO mice. As to the kind of experiment: Oral glucose tolerance test (OGTT) in diet-induced obese (DIO) mice. The class given is in vivo. To be noted: fasted DIO mice, compound by gavage 30 min before oral glucose 2 g/kg, glucose measured 0-90 min, FIG. 2A/2B. How it is done:
DIO mice were male C56BL/6J-Narl mice at age of 13 to 15 weeks that have been fed with Western Diet (TestDiet 5342) for 6 to 8 weeks. DIO mice were fasted for five hours and then gavaged with a compound described herein (e.g., compounds RJ21 and RJ27) at indicated dose or with vehicle alone. Thirty minutes later, the mice were gavaged with glucose (2 g/kg body weight). The level of blood glucose was measured right before and every 30 minutes after the glucose challenge up to 90 minutes. The data are expressed as mean±SD and analyzed by Student's t-test using Prism (GraphPad).
The effect of the compounds to the homeostasis of blood glucose using oral glucose tolerance test (OGTT) was examined in this example. Fasted DIO mice were gavaged with RJ21, RJ27, or vehicle alone, and received an oral glucose challenge (2 g/kg body weight) 30 minutes later. The level of blood glucose was measured right before (0 minute) and every 30 minutes after the glucose gavage.

Another test has as its target T1, GLP-1 receptor (Rattus norvegicus, UniProt P32301).
T1 construct: endogenous in cells; host or cells: RIN-m5F cells
T1 sequence (P32301 22-463): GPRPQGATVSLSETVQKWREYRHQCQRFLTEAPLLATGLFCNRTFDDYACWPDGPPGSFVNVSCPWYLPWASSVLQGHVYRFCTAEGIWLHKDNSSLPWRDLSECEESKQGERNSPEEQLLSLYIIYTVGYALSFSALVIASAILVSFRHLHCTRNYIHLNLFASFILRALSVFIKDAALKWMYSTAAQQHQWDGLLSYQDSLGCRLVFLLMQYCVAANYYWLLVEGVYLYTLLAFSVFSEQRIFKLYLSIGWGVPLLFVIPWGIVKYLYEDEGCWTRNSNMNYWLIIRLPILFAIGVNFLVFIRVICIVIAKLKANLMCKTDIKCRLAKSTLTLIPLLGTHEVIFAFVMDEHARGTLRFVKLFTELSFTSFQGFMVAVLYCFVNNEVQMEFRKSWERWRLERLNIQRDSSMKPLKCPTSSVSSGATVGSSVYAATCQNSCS
Nature of the test: GLP-1 dependent cAMP production from RIN-m5F cells (ELISA). The class given is cell-based. The note with it: 0.001 mg/ml compound. The procedure:
The cells were cultured in 37° C. with 5% CO2 for 42 hours prior to cAMP production experiment.
The stimulation process was terminated by replacing the stimulation medium with 0.05 ml per well of ice-cold absolute ethanol, and further incubated at −20° C. for 20 min. The cellular cAMP was extracted with 0.085 ml PBS after the ethanol in the wells were evaporated in a vacuum desiccator for 35 min.
The total cAMP from each well was determined by ELISA method according the procedure recommended by the supplier.

Regarding `COC(=O)C1=CC[C@H]2[C@@](C=O)(CCC3C(C)(C)CCC[C@@]32C)[C@H](O)C1` (stereo partly shown) [RJ27], in the test on DIO mice, the “blood glucose level versus vehicle-treated mice” value is recorded as “significantly lower”.

In the case of galanal B [RJ21], the “potentiation of the effect of GLP-1 on cAMP production (factor)” value on GLP-1 receptor (30 nM GLP-1, RIN-m5F cells, 15 min) turned out to be 2. Moreover, the “cAMP generation by the compound by itself (agonist effect)” value at GLP-1 receptor (RIN-m5F cells, little cAMP response at 3 nM GLP-1) was “did not affect”. Besides, the “blood glucose level versus vehicle-treated mice” value in the test on DIO mice is “significantly lower”.
